Source: patent US20240226292A1, “METHODS AND COMPOSITIONS FOR TARGETING OF ANTIGENS AND OTHER POLYPEPTIDES TO FIRST RESPONDER DENDRITIC CELLS” (THE UNIVERSITY OF CHICAGO, priority 2021, published 2024)

Legend:
BMDCs = assay: Nocodazole treated BMDCs, MP uptake and % FRs by imagestream; type: cell-based, mouse; conditions: 10 nM Nocodazole for 20 hrs prior to MP treatment, versus NT
Method: FIGS. 39A-39E. FRs are more likely actively dividing. (FIG. 39A) 1 million BMDCs were incubated with 1 million MP-TLR4 for 15 mins, washed and stain with Hoest for nuclear stain (0.1 ug/mL) and anti-CD11c antibody. […] (FIG. 39B) Graph of imagestream data from FIG. 39A from an N=3 showing that most BMDC FRs are in G2 phase. (FIG. 39C) 1 million BMDCs were similarly treated as in FIG. 39A, except some samples were treated with 10 nM Nocodazole for 20 hrs prior to MP-TLR4 treatment. NT=non-treated, Noco=Nocodazole treated. (FIG. 39D) Similar to FIG. 39C, BMDCs were treated with MP-TLR7 or Blank MPs (1:1 particles/cells) for 15 mins, then tested via imagestream. Total MP uptake per 100 k BMDCs were calculated for either NT or Noco treated samples. […] N=3, Error bars indicate +/−SD.

[1] = Liposomes loaded with cell cycle blocking agents and FLA before OVA/CpG vaccination; type: in vivo, mice; conditions: liposomes i.p. day 1, 100 ug OVA/10 ug CpG day 2
Method: FIGS. 42A-42D. […] Liposomes were loaded with two agents to block cell cycle (Cytoclastin D, CytoD, which blocks cells in G1 phase and Nocodozole, Noco, which blocks cells in G2 phase) as well as flagellin(FLA) as an TLR agonist. Mice were injected with 200 uL of 10 mM total lipid liposomes containing either (1) PBS only, Blank (2) FLA, 1 ug total per injection (3) FLA and 100 ug CytoD or (4) FLA+20 ug Noco. Mice were injected i.p with liposomes on day 1, then injected with 100 ug OVA/10 ug CpG (free formulation) on day 2 also i.p. Sera was collected via cheek bleed 1 hr after OVA/CpG injection. Mice were then sac'd on day 10 to observe anti-OVA Ig. Serum levels 1 h after injection for (FIG. 42A) IL-4, (FIG. 42B) MCP-1 and (FIG. 42C) TNF-a. (FIG. 42D) Total anti-OVA Ig on […]. N=5 mice per group.
(§1) Additional characterization and targeting of first responder dendritic cells (FRs) was performed.

PRG2 = biological target: T1, PRG2 (Homo sapiens, UniProt P13727); conditions: cited from earlier work
T1 sequence (P13727 106-222): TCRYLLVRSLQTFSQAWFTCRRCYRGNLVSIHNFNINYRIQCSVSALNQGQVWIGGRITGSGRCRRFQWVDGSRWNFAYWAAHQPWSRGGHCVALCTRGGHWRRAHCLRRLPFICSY

FRs = assay: CD206 targeting peptide liposomes, FR targeting in BMDCs and splenocytes; type: cell-based, mouse; conditions: lipid-peptide in 200 nm liposomes at 1% total lipid, in combination with heparin or GFLSKSLVF
Method: FIGS. 48A-48B. FR targeting peptides. A peptide targeting CD206 as described in a study by Ghebremedhin et al (Ghebremedhin A, Salam AB, Adu-Addai B, et al. Preprint. bioRxiv. 2020;2020.07.27.218115; incorporated herein by reference), having sequence RWKFGGFKWR (SEQ ID NO:2), was synthesized using the same lipid-peptide display technique as shown previously and incorporated into 200 nm liposomes at 1% total lipid. (FIG. 48A) 200K BMDCs were incubated with liposomes at either 1 or 10 uM total lipid concentration for 15 mins, then incubated with MP-TLR4 (200K) for 15 mins, washed and stained. The liposomal RFU is plotted for various formulations. MMR=CD206 targeting lipid at 1% total lipid, DAP12=DAP12 targeting lipid at 1% total lipid, Hep=heparin-lipid conjugate at 10% total lipid. (FIG. 48B) similar to part A, but using 2 million splenocytes and gating on all CD11c+ cells.
as §1

DAP12 = DAP12 (Homo sapiens, UniProt O43914); conditions: cited from earlier work
Chain of DAP12 (O43914 22-113, species assumed): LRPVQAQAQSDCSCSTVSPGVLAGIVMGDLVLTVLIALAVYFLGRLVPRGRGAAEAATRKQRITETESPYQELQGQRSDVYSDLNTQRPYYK

COC(=O)Nc1nc2cc(C(=O)c3cccs3)ccc2[nH]1 [Noco, Nocodazole]
total % of FRs (BMDCs): increases in FR population

C=C1[C@@H](C)[C@H]2[C@H](Cc3ccccc3)NC(=O)[C@]23[C@H](OC(C)=O)/C=C/[C@@](C)(O)C(=O)[C@@H](C)C/C=C/[C@H]3[C@@H]1O [Cytoclastin D]
vaccine response [1]: increases vaccine response

heparin
affinity to PRG2 (PRG2): moderate affinity

RWKFGGFKWR [peptide targeting CD206 as described by Ghebremedhin et al]
identification and targeting of FRs (FRs): can identify and target FRs

GFLSKSLVF
binding to DAP12 (DAP12): selectively binding
